Where two headings read alike, the source gives them in different places.
How the values were obtained:
Assay in all cases: In vitro high-throughput screen of FDA-approved drug library (CellTiter-Glo)
Type in all cases: cell-based
SK-ES-1 = details: for inhibition at 1 µM: Homo sapiens, read-out: % Inhibition SK-ES-1
Protocol: (§1) We screened, in parallel to the three computational approaches, an FDA-approved drug library containing 2,316 drugs (1,536 unique chemical entities). […] The drug screening study protocol employed is summarized in Supplementary Table S1.
(§2) Cells were grown to 80–90% confluence, harvested and aliquoted into 384-well plates (black μClear microplates, Greiner bio-one, Germany) at concentrations of 750–1,500 cells per well in a total volume of 25 μl/well using a Matrix Wellmate (Thermo Scientific). Cells were cultured for 72 hours in a 5% CO2 atmosphere at 37°C. Aliquots of 25 μl CellTiter-Glo® Reagent (Promega) were added directly to each well, the plates were incubated at room temperature for 20 min and the luminescence signal was measured according to the manufacturer's protocol. The measurements were made using Infinite® M200 Pro plate reader (Tecan, Switzerland). […] Data were normalized to percentage inhibition. […]
(§3) (A) Color scale for drug inhibition values. […]

Hs 919.T. = details: for inhibition at 1 µM: read-out: % Inhibition Hs 919.T.
Protocol: as §1, §2, §3

RD-ES = details: for inhibition at 1 µM: RD-ES, read-out: % Inhibition RD-ES
Protocol: as §1, §2, §3

A673 = details: for inhibition at 1 µM: Homo sapiens, read-out: % Inhibition A673
Protocol: as §1, §2, §3

[1] = SK-ES1, 1 μmol/L drug, 72 hours
[2] = 1 μmol/L drug, 72 hours, control cell line

CCCOc1ccc2nc(NC(=O)OC)[nH]c2c1 [Oxibendazole]
inhibition at 1 µM (SK-ES-1; [1]): 84%
inhibition at 1 µM (Hs 919.T.; [2]): < 50%
inhibition at 1 µM (RD-ES; 1 μmol/L drug, 72 hours): 80%
inhibition at 1 µM (A673; A673, 1 μmol/L drug, 72 hours): 64%

CCCSc1ccc2nc(NC(=O)OC)[nH]c2c1 [Albendazole]
inhibition at 1 µM (SK-ES-1; SK-ES1, 72 h): 93%
inhibition at 1 µM (Hs 919.T.; 72 h): < 50%
inhibition at 1 µM (RD-ES; 72 h): 93%
inhibition at 1 µM (A673; A673, 72 h): 89%

C[C@]12CC[C@@H]3c4ccc(O)cc4CC[C@H]3[C@@H]1CC[C@@H]2O [Estradiol]
inhibition at 1 µM (SK-ES-1; [1]): < 50%
inhibition at 1 µM (Hs 919.T.; [2]): < 50%
inhibition at 1 µM (RD-ES; 1 μmol/L drug, 72 hours): < 50%
inhibition at 1 µM (A673; A673, 1 μmol/L drug, 72 hours): 65%

C[C@]12CCC(=O)C=C1CC[C@@H]1[C@@H]2CC[C@@]2(C)[C@H]1CC[C@]2(C)O [Methyltestosterone]
inhibition at 1 µM (SK-ES-1; [1]): < 50%
inhibition at 1 µM (Hs 919.T.; [2]): < 50%
inhibition at 1 µM (RD-ES; 1 μmol/L drug, 72 hours): 73%
inhibition at 1 µM (A673; A673, 1 μmol/L drug, 72 hours): < 50%

Nc1ccn([C@@H]2O[C@H](CO)[C@@H](O)[C@@H]2O)c(=O)n1 [Cytosine β-D-arabinofuranoside]
% Inhibition SK-ES-1 (SK-ES-1; 1 μmol/L drug, 72 hours): 98%
% Inhibition Hs 919.T. (Hs 919.T.; [2]): < 50%
% Inhibition RD-ES (RD-ES; 1 μmol/L drug, 72 hours): 93%
% Inhibition A673 (A673; 1 μmol/L drug, 72 hours): 84%

Clc1ccccc1CN1CCc2sccc2C1 [Ticlopidine]
inhibition at 1 µM (SK-ES-1; [1]): < 50%
inhibition at 1 µM (Hs 919.T.; [2]): < 50%
inhibition at 1 µM (RD-ES; 1 μmol/L drug, 72 hours): < 50%
inhibition at 1 µM (A673; A673, 1 μmol/L drug, 72 hours): 66%

CN(Cc1cnc2nc(N)nc(N)c2n1)c1ccc(C(=O)N[C@@H](CCC(=O)O)C(=O)O)cc1 [L-Glutamic acid, N-[4-[[(2,4-diamino-6-pteridinyl)methyl]methylamino]benzoyl]]
% Inhibition SK-ES-1 (SK-ES-1; 1 μmol/L drug, 72 hours): 57%
% Inhibition Hs 919.T. (Hs 919.T.; [2]): < 50%
% Inhibition RD-ES (RD-ES; 1 μmol/L drug, 72 hours): 77%
% Inhibition A673 (A673; 1 μmol/L drug, 72 hours): 85%

COc1cc([C@@H]2c3cc4c(cc3[C@@H](O[C@@H]3O[C@@H]5CO[C@@H](C)O[C@H]5[C@H](O)[C@H]3O)[C@H]3COC(=O)[C@H]23)OCO4)cc(OC)c1O [Etoposide]
inhibition at 1 µM (SK-ES-1; [1]): 84%
inhibition at 1 µM (Hs 919.T.; [2]): < 50%
inhibition at 1 µM (RD-ES; 1 μmol/L drug, 72 hours): 84%
inhibition at 1 µM (A673; A673, 1 μmol/L drug, 72 hours): < 50%

Nc1nc(Cl)nc2c1ncn2[C@H]1C[C@H](O)[C@@H](CO)O1 [Cladribine]
inhibition at 1 µM (SK-ES-1; [1]): 89%
inhibition at 1 µM (Hs 919.T.; [2]): < 50%
inhibition at 1 µM (RD-ES; 1 μmol/L drug, 72 hours): 99%
inhibition at 1 µM (A673; A673, 1 μmol/L drug, 72 hours): 87%

Nc1nc(O)c2[nH]nnc2n1 [Azaguanine-8]
% Inhibition SK-ES-1 (SK-ES-1; 1 μmol/L drug, 72 hours): < 50%
% Inhibition Hs 919.T. (Hs 919.T.; [2]): < 50%
% Inhibition RD-ES (RD-ES; 1 μmol/L drug, 72 hours): < 50%
% Inhibition A673 (A673; 1 μmol/L drug, 72 hours): 83%

NNC(=O)c1ccncc1 [Isoniazid]
inhibition at 1 µM (SK-ES-1; [1]): < 50%
inhibition at 1 µM (Hs 919.T.; [2]): < 50%
inhibition at 1 µM (RD-ES; 1 μmol/L drug, 72 hours): < 50%
inhibition at 1 µM (A673; A673, 1 μmol/L drug, 72 hours): 56%

C[C@@H]1C[C@@H]([C@H](O)CC2CC(=O)NC(=O)C2)C(=O)[C@@H](C)C1 [Cycloheximide]
inhibition at 1 µM (SK-ES-1; [1]): 81%
inhibition at 1 µM (Hs 919.T.; [2]): < 50%
inhibition at 1 µM (RD-ES; 1 μmol/L drug, 72 hours): 74%
inhibition at 1 µM (A673; A673, 1 μmol/L drug, 72 hours): 77%

CCc1c2c(nc3ccc(OC(=O)N4CCC(N5CCCCC5)CC4)cc13)-c1cc3c(c(=O)n1C2)COC(=O)[C@]3(O)CC.Cl [Irinotecan Hydrochloride]
% Inhibition SK-ES-1 (SK-ES-1; 1 μmol/L drug, 72 hours): 98%
% Inhibition Hs 919.T. (Hs 919.T.; [2]): < 50%
% Inhibition RD-ES (RD-ES; 1 μmol/L drug, 72 hours): 99%
% Inhibition A673 (A673; 1 μmol/L drug, 72 hours): 83%

COC(=O)Nc1nc2cc(C(=O)c3ccc(F)cc3)ccc2[nH]1 [Flubendazole]
inhibition at 1 µM (SK-ES-1; [1]): 86%
inhibition at 1 µM (Hs 919.T.; [2]): < 50%
inhibition at 1 µM (RD-ES; 1 μmol/L drug, 72 hours): 86%
inhibition at 1 µM (A673; A673, 1 μmol/L drug, 72 hours): 77%

CC[C@@]1(O)C(=O)OCc2c1cc1n(c2=O)Cc2cc3ccccc3nc2-1 [Camptothecine (S,+)]
% Inhibition SK-ES-1 (SK-ES-1; 1 μmol/L drug, 72 hours): 96%
% Inhibition Hs 919.T. (Hs 919.T.; [2]): < 50%
% Inhibition RD-ES (RD-ES; 1 μmol/L drug, 72 hours): 97%
% Inhibition A673 (A673; 1 μmol/L drug, 72 hours): 99%

O=c1[nH]c(=O)n([C@H]2C[C@H](O)[C@@H](CO)O2)cc1C(F)(F)F [Trifluridine]
inhibition at 1 µM (SK-ES-1; [1]): < 50%
inhibition at 1 µM (Hs 919.T.; [2]): < 50%
inhibition at 1 µM (RD-ES; 1 μmol/L drug, 72 hours): 71%
inhibition at 1 µM (A673; A673, 1 μmol/L drug, 72 hours): < 50%

Cc1cc(/C=C/c2ccc3cc(N(C)C)ccc3[n+]2C)c(C)n1-c1ccccc1 [Pyrvinium pamoate]
inhibition at 1 µM (SK-ES-1; [1]): 96%
inhibition at 1 µM (Hs 919.T.; [2]): < 50%
inhibition at 1 µM (RD-ES; 1 μmol/L drug, 72 hours): 98%
inhibition at 1 µM (A673; A673, 1 μmol/L drug, 72 hours): 84%

— PMC5354814, “In silico and in vitro drug screening identifies new therapeutic approaches for Ewing sarcoma” (Oncotarget, 2016)
